Data: US20180105561A1, “ANALOGS OF SODIUM CHANNEL PEPTIDE TOXIN” (priority 2010, published 2018)
Where a SMILES comes first, the peptide text is derived from it. Bridges are numbered along the chain shown (N, C = ends).

Columns and labels:
Nav1.2 (rBIIa) = test: Sodium channel-blocking assay, Nav1.2 counter-screen; format: cell-based, rat; conditions: Table 3, natural toxins
human Nav1.7 = human Nav1.7 (Homo sapiens, UniProt Q15858); format: cell-based; conditions: Table 3, natural toxins
Sequence of human Nav1.7 (Q15858 other isoform, or with tags, fused parts or gaps): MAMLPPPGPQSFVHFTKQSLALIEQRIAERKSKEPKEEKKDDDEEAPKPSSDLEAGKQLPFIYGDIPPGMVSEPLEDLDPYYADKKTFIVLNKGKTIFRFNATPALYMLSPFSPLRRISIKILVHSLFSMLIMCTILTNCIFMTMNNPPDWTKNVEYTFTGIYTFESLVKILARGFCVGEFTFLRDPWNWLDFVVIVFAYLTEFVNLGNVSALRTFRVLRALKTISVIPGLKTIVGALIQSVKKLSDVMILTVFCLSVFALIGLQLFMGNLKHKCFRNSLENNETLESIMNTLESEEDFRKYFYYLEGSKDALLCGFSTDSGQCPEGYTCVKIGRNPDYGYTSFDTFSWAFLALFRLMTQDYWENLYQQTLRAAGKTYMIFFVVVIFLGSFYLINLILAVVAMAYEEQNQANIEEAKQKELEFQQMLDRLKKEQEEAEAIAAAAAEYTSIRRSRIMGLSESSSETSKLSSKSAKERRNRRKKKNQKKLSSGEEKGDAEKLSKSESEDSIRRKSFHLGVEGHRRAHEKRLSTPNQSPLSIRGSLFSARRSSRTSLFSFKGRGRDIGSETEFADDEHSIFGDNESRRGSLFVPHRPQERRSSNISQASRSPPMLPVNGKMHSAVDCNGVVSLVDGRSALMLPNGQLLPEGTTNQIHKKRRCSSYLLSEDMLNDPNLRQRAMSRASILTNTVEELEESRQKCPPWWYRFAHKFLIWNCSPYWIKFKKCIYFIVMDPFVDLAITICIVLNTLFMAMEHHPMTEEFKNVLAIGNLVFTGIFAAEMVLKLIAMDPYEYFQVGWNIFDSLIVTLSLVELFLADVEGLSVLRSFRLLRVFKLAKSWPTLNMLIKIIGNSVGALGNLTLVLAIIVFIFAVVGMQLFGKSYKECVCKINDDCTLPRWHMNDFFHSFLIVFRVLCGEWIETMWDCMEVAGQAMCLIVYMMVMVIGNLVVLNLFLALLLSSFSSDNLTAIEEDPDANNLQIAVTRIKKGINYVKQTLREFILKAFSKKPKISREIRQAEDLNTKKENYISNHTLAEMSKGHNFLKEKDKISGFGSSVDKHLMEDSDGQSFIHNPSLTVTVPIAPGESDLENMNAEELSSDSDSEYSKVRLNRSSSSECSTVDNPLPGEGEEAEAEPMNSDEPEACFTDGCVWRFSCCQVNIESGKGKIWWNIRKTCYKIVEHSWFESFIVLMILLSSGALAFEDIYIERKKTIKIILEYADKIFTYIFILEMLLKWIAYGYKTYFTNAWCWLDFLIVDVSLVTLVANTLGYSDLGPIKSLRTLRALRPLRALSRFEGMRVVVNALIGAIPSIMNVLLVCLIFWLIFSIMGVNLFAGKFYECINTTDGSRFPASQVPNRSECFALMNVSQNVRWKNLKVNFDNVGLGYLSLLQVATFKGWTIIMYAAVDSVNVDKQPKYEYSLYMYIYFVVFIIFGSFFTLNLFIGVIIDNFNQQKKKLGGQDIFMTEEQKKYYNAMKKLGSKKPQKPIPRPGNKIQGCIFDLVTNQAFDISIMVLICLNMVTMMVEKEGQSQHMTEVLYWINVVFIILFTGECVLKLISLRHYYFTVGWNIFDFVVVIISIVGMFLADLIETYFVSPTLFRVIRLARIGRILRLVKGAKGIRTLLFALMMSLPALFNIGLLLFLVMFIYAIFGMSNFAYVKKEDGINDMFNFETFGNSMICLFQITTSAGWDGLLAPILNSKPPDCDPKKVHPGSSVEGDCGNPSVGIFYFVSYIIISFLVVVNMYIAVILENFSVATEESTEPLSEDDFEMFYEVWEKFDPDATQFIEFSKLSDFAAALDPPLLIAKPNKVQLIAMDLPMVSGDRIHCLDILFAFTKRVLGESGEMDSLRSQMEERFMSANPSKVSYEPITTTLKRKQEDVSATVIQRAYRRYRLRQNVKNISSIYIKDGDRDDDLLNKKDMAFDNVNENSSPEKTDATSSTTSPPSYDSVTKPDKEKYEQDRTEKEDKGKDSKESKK

`CC[C@H](C)[C@H](NC(=O)[C@H](CCCCN)NC(=O)[C@H](CCCCN)NC(=O)[C@H](CCCCN)NC(=O)[C@@H]1CSSC[C@@H]2NC(=O)[C@H](CCCCN)NC(=O)[C@H](CCCNC(=N)N)NC(=O)[C@H](CCC(=O)O)NC(=O)[C@H](CCC(=O)O)NC(=O)[C@H](CC(=O)O)NC(=O)[C@@H]3CSSC[C@H](NC(=O)[C@H](C(C)C)NC(=O)[C@H](CC(C)C)NC(=O)CNC(=O)[C@H](CCC(=O)O)NC(=O)[C@H](CSSC[C@H](NC(=O)[C@@H](N)Cc4ccc(O)cc4)C(=O)N[C@@H](CCC(N)=O)C(=O)N[C@@H](CCCCN)C(=O)N[C@@H](Cc4c[nH]c5ccccc45)C(=O)N[C@@H](CCSC)C(=O)N[C@@H](Cc4c[nH]c5ccccc45)C(=O)N[C@@H]([C@@H](C)O)C(=O)N3)NC2=O)C(=O)N[C@@H](CCCNC(=N)N)C(=O)N[C@@H](CC(C)C)C(=O)N[C@@H](Cc2c[nH]c3ccccc23)C(=O)N1)C(=O)N[C@@H](CCC(=O)O)C(=O)N[C@@H](Cc1c[nH]c2ccccc12)C(=O)O` [GsAF II] (H-YCQKWMWTCDEERKCCEGLVCRLWCKKKIEW-OH; disulfide 2-16, 9-21, 15-25) showed an IC50 (Nav1.2 (rBIIa)) of 0.41 ± 0.02 µM and an IC50 (human Nav1.7) of 0.07 ± 0.01 µM.
